Drawing on BindingDB's records for doi:10.1021/jm3015052, this text covers IC50 for eight compounds.

The structures appear in SMILES notation.

Sequence of Acetylcholinesterase (P22303 whole entry): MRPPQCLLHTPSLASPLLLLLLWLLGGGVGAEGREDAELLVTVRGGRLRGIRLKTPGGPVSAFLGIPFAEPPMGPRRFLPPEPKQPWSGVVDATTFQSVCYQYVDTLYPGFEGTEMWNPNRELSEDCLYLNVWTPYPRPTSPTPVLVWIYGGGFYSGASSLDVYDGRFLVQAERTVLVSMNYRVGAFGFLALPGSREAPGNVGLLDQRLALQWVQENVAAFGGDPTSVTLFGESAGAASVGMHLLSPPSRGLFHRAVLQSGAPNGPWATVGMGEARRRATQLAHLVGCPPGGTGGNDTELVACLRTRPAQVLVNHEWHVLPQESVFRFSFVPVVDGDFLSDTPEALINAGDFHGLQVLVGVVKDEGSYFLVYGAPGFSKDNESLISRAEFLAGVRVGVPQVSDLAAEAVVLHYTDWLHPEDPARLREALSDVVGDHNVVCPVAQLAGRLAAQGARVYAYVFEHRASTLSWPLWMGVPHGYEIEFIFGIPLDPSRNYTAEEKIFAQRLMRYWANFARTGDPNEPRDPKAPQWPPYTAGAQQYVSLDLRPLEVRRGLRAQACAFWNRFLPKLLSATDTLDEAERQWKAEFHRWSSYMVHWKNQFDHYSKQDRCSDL

One assay addresses Acetylcholinesterase (Homo sapiens, UniProt P22303). The experiment in a line: Inhibition of AChE (unknown origin).
As to `COc1cc(/C=C2\Oc3cc(OCCN4CCCCC4)ccc3C2=O)cc(OC)c1OC`, the IC50 (as a rule, the concentration that inhibits the measured activity by half) came out at 422 nM. Still for that read-out and setting: in the case of `COc1cc(/C=C2\Oc3cc(OCCN4CCCC4)ccc3C2=O)cc(OC)c1OC` it was 643 nM; in that of `COc1ccc(/C=C2\Oc3cc(OCCN4CCCCC4)ccc3C2=O)cc1`, 845 nM. On the same count and under the same terms, then `COc1ccc2c(c1)O/C(=C\c1ccc(OCCN3CCCCC3)c(Cl)c1)C2=O`, with 160 nM. The same measure, in the same setting: in the case of `O=C1/C(=C/c2ccc(OCCN3CCCCC3)cc2)Oc2ccccc21` it was 348 nM.

Compound `O=C1/C(=C/c2ccc(OCCN3CCCC3)cc2)Oc2ccccc21` returned an IC50 of 545 nM. The same measure, in the same setting: in the case of `CCOc1ccc2c(c1)O/C(=C\c1ccc(OCCN3CCCCC3)cc1)C2=O` it was 45 nM.

The target of a further assay is T1, Tyrosine-protein phosphatase non-receptor type 1 (Homo sapiens, UniProt P18031).
T1 sequence (P18031 whole entry): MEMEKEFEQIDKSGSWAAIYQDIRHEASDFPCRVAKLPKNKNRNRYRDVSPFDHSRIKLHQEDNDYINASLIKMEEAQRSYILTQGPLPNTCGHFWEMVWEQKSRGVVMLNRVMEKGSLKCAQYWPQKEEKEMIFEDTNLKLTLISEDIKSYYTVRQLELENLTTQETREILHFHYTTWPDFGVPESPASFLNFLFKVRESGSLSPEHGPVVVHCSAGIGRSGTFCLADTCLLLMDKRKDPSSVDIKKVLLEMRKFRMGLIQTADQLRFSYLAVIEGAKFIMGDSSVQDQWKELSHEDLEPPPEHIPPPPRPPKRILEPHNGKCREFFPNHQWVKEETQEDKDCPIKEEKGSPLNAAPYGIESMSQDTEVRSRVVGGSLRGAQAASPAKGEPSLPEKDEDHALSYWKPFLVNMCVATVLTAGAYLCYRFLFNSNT
The assay is described as follows: Inhibition of PTP1B (unknown origin).
Compound `CC(C)=CCc1c(O)ccc2c1O/C(=C\c1ccc(O)cc1)C2=O` came in with an IC50 of 11300 nM.

For the next assay, the target named is T2, Diacylglycerol O-acyltransferase 1 (Homo sapiens, UniProt O75907).
T2 sequence (O75907 whole entry): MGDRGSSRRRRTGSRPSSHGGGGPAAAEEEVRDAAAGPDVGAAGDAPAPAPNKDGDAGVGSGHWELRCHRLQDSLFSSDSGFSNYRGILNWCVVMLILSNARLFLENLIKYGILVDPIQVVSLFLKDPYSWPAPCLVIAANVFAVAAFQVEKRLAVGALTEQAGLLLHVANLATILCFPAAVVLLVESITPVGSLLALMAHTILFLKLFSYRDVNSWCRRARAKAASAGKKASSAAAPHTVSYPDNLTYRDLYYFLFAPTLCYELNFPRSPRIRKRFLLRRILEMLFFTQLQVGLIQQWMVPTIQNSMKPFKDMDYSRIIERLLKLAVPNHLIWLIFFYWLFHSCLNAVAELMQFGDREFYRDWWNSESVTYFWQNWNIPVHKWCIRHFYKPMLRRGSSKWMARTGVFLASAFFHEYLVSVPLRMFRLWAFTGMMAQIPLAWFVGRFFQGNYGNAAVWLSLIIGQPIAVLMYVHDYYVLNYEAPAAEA
The assay is described as follows: Inhibition of DGAT1 (unknown origin).
With `CC(C)=CCc1c(O)ccc2c1O/C(=C\c1ccc(O)cc1)C2=O`, half-maximal inhibition (IC50) was put at 35200 nM.
